Source: patent publication US4291024A, “Cytotoxic liponucleotide analogs” (priority 1980, dated 1981)
Where a name gives a salt, the structure may show the parent alone.

Key:
[1] = system: murine leukemic cells L5178Y; assay: Inhibition of reproduction of murine leukemic cells L5178Y by cytotoxic liponucleotide analogs - 72 hours; assay type: cell-based; conditions: for IC50: read-out: MOLAR CON[…] 50 PERCENT INHIBITION, 50% decrease in number of doublings vs untreated controls, read-out: MOLAR CONCENTRATION CAUSING 50 PERCENT INHIBITION
Method: The leukemic cells L5178Y were grown from an inoculum of 4×10^3 cells per ml for a period of 72 hours in the presence of different levels (10^-4 -10^-7 M) of drugs.

CMI-DTH reactions = assay: CMI-DTH reactions; assay type: in vivo, mouse
[2] = system: mouse antisheep erythrocyte antibody-forming cells; assay: Suppression of IgM and IgG mouse antisheep erythrocyte antibody-forming cells (AFC); assay type: in vivo
[3] = system: human colon carcinoma HCT-15 cells; assay: Antitumor activity against human colon carcinoma in immunosuppressed mice; assay type: in vivo, mouse; conditions: for TUMOR WEIGHT: control 89.7 ± 4.9
Method: Male B6D2F1 mice (18-22 g, 4/group) were immunosuppressed with 0.25 ml subcutaneous injection of ATS on days -1,0,1,3 and 6. Human colon carcinoma cells (5.0×10^6 cells/mouse) were inoculated subcutaneously into an area slightly above the left inguinal region on day 0. The drug dissolved in saline to a volume of 0.1 ml was injected intraperitoneally once a day for four consecutive days. Saline was administered to the controls. The percent change in body weight from the onset to the day of weighing the tumor was used as an indication of drug toxicity.

[4] = system: leukemia L5178Y ascites cells; assay: Survival time of mice bearing leukemia L5178Y ascites cells, Ia-11-diglyceride; assay type: in vivo, mouse; conditions: for AVERAGE SURVIVAL (DAYS ± S.E.): control 17.6 ± 0.2; for prolongation of survival times: mice bearing leukemia L5178Y cells
Method: Mice (10/group) were inoculated with L5178Y cells (5×10^6 cells/mouse) and drug injections were begun on the second day. The drug in a volume of 0.1 ml was injected intraperitioneally once a day for four consecutive days. Saline was administered to the controls. The percent change in body weight from the onset to the termination of therapy was used as an indication of drug toxicity.

leukemic cells L5178Y = assay: Animal antitumor activity of liponucleotides (leukemic cell kill in the peritoneal cavity); assay type: in vivo, mouse; conditions: for PERCENT SURVIVAL: L5178Y i.p., control 100
Method: The leukemic cells L5178Y (4×10^5 cells/mouse) were injected intraperitoneally on day 0. Drugs at various dosages (20 mg/kg, 40 mg/kg and 100 mg/kg) were injected on day 5 and incubated for 2 hours. At the end of the incubations, 5.0 ml of Fischer's medium containing 10% horse serum (FMS) was injected […].). After mixing, 1.0 ml aliquots were withdrawn and transferred to culture tubes containing 5.0 ml of FMS. Cells were centrifuged immediately, washed 2 xs and resuspended in 5.0 ml of FMS. Cell viability was determined by the dilute agar colony method.

[5] = system: murine leukemic cells L5178Y; assay: Inhibition of reproduction of murine leukemic cells L5178Y by liponucleotides - 2 hours (dilute agar colony method); assay type: cell-based; conditions: for viability at 100 µM / viability at 10 µM / viability at 1 µM / viability at 0.1 µM: Mus musculus, L5178Y, 2 hours, untreated control normalized to 100%, read-out: PERCENT SURVIVAL; for viability at 100 µM: 1 × 10^-4 M; for viability at 10 µM: 1 × 10^-5 M; for viability at 1 µM: 1 × 10^-6 M; for viability at 0.1 µM: 1 × 10^-7 M
Method: L5178Y cells (2×10^5 /ml) in the exponential phase of growth were incubated singly with drugs for a period of 2 hours at concentrations of […] to 1×10^-7 M. Cell viability was determined by the dilute agar colony method. Each observation represents the mean value of three experimentations with four replicates per experiment. A minimum of 200 colonies were counted for each group. The cloning efficiency of the untreated cells was approximately 75%; all values were normalized to 100%.

[6] = system: leukemia L5178Y ascites cells; assay: Survival time of mice bearing leukemia L5178Y ascites cells, Ia-11-dipalmitin; assay type: in vivo, mouse; conditions: for PER CENT CHANGE IN LIFE SPAN / AVERAGE SURVIVAL / PER CENT CHANGE IN WEIGHT: i.p. twice a day ×4 days; for AVERAGE SURVIVAL: control 15.0 ± 0.28; for PER CENT CHANGE IN WEIGHT: control -1.4
Method: Mice (10/group) were inoculated with L5178Y cells (5×10^6 cells/mouse) and drug injections were begun on the second day. The drug in a volume of 0.2 ml was injected intraperitoneally twice a day at a five-hour interval for four consecutive days. Distilled water was administered to the controls. The percent change in body weight from the onset to the termination of therapy was used as an indication of drug toxicity.

LD10 (lethality) = assay type: in vivo; conditions: ×4 regimen
[7] = 50 mg/kg/day×4, intraperitoneal
[8] = 30 mg/kg daily dosage (first 30 line)
[9] = 30 mg/kg daily dosage (second 30 line)

Compound: CCCCCCCCCCCCCCCC(=O)OCC(COP(=O)(O)OP(=O)(O)OC[C@H]1O[C@@H](n2ccc(N)nc2=O)[C@@H](O)[C@@H]1O)OC(=O)CCCCCCCCCCCCCCC (stereo partly shown)
- IC50 ([1]; Mus musculus, L5178Y, 72 hours): 14 µM

Compound: 1-Beta-D-Arabinofuranosylcytosine-5'-diphosphate-L-diglyceride Diammonium Salt [Ia-11-Diglyceride]
- delay of peak DTH response (CMI-DTH reactions; 50 mg/kg, (day 4-7) or more): ≥ 3 days
- immunostimulatory activity on DTH (CMI-DTH reactions; 50 mg/kg, later periods, judged by very late rising profile of response): may have immunostimulatory activity on DTH at later periods
- IgG AFC/10^6 spleen cells [2, 7]: background levels
- IgG AFC/spleen [2, 7]: background levels
- IgM AFC/10^6 spleen cells [2, 7]: background levels
- IgM AFC/spleen [2, 7]: background levels
- suppression of IgM and IgG AFC relative to cytosine arabinoside "equivalent" ([2]; mouse, in vivo): more pronounced suppression
- PER CENT OF CONTROL TUMOR WEIGHT ([3]; 25 mg/kg daily i.p. ×4 days): 68.4 ± 15.6 PER CENT
- TUMOR WEIGHT ([3]; 25 mg/kg daily i.p. ×4 days): 61.3 ± 14.0 mg
- PER CENT OF CONTROL TUMOR WEIGHT ([3]; 50 mg/kg daily i.p. ×4 days, *P 0.005 (1tailed "t" test)): 21.0 ± 13.5 PER CENT
- TUMOR WEIGHT ([3]; 50 mg/kg daily i.p. ×4 days): 18.7 ± 12.0 mg
- inhibition of tumor growth ([3]; 50 mg/kg/day×4, excised tumors weighed, vs non-treated control): 80%
- % CHANGE IN LIFE SPAN ([4]; 12.5 mg/kg daily i.p. ×4 days): +29.6%
- AVERAGE SURVIVAL (DAYS ± S.E.) ([4]; 12.5 mg/kg daily i.p. ×4 days): 22.0 ± 0.6 days
- % CHANGE IN LIFE SPAN ([4]; 25.0 mg/kg daily i.p. ×4 days): +44.3%
- AVERAGE SURVIVAL (DAYS ± S.E.) ([4]; 25.0 mg/kg daily i.p. ×4 days): 25.4 ± 1.1 days
- % CHANGE IN LIFE SPAN ([4]; 50.0 mg/kg daily i.p. ×4 days): +93.2%
- AVERAGE SURVIVAL (DAYS ± S.E.) ([4]; 50.0 mg/kg daily i.p. ×4 days): 34.0 ± 2.4 days
- log cell kill ([4]; 50 mg/kg/day×4): 4 log
- prolongation of survival times ([4]; 50 mg/kg/day×4): 93%
- difference in antitumor activity in vivo vs Ia-11-dipalmitin ([4]; Table 4 compared with Table 5): significant difference in antitumor activity in vivo
- in vivo activity relative to cytosine arabinoside ([4]; leukemia L5178Y in vivo (Table 4)): significantly more active than cytosine arabinoside
- antitumor activity in culture relative to Ia-11-dipalmitin ([1]; in culture (Table 2)): superior activity

Compound: CCCCCCCCCCCCCCCC(=O)OCC(COP(=O)(O)OP(=O)(O)OC[C@H]1O[C@@H](n2ccc(N)nc2=O)[C@H](O)[C@@H]1O)OC(=O)CCCCCCCCCCCCCCC (mixture of isomers) [Ia-1-Dipalmitin, 1-Beta-D-Ribofuranosylcytosine-5'-Diphosphate-DL-1,2-Dipalmitin Diammonium Salt]
- PERCENT SURVIVAL (leukemic cells L5178Y; 20 mg/kg on day 5, 2 hours): 57%
- PERCENT SURVIVAL (leukemic cells L5178Y; 40 mg/kg on day 5, 2 hours): 54%
- PERCENT SURVIVAL (leukemic cells L5178Y; 100 mg/kg on day 5, 2 hours): 43%
- activity relative to the CLNA molecule containing the beta-D-arabinofuranosyl moiety (leukemic cells L5178Y; peritoneal cavity (Table 3)): activity comparable to the CLNA molecule
- viability at 100 µM [5]: 65.7 ± 5.69%
- viability at 10 µM [5]: 76.7 ± 6.66%
- viability at 1 µM [5]: 94.7 ± 4.04%
- viability at 0.1 µM [5]: 94.7 ± 5.03%
- activity relative to the CLNA molecule containing the beta-D-arabinofuranosyl moiety ([5]; in culture (Table 1)): activity comparable to the CLNA molecule

Compound: Nc1ccn([C@@H]2O[C@H](COP(=O)(O)O)[C@@H](O)[C@@H]2O)c(=O)n1 [Cytosine Arabinoside 5'-Phosphate]
- IC50 ([1]; Mus musculus, L5178Y, 72 hours): 0.27 µM
- viability at 100 µM [5]: 54.8 ± 1.54%
- viability at 10 µM [5]: 87.5 ± 5.18%
- viability at 1 µM [5]: 93 ± 8.9%
- viability at 0.1 µM [5]: 99 ± 5.21%

Compound: CCCCCCCCCCCCCCCC(=O)OCC(COP(=O)(O)OP(=O)(O)OC[C@H]1O[C@@H](n2ccc(N)nc2=O)[C@@H](O)[C@@H]1O)OC(=O)CCCCCCCCCCCCCCC (mixture of isomers) [Ia-11-Dipalmitin, 1-Beta-D-Arabinofuranosylcytosine-5'-diphosphate-DL-1,2-dipalmitin Diammonium Salt]
- PER CENT CHANGE IN LIFE SPAN [6, 8]: +24.0 PER CENT
- AVERAGE SURVIVAL [6, 8]: 18.6 ± 0.22 days
- PER CENT CHANGE IN WEIGHT [6, 8]: -5.0 PER CENT
- PER CENT CHANGE IN LIFE SPAN [6, 9]: +32.0 PER CENT
- AVERAGE SURVIVAL [6, 9]: 19.8 ± 0.82 days
- PER CENT CHANGE IN WEIGHT [6, 9]: -5.86 PER CENT
- PER CENT CHANGE IN LIFE SPAN ([6]; 50 mg/kg daily dosage): +37.3 PER CENT
- AVERAGE SURVIVAL ([6]; 50 mg/kg daily dosage): 20.6 ± 0.76 days
- PER CENT CHANGE IN WEIGHT ([6]; 50 mg/kg daily dosage): -3.5 PER CENT
- in vivo activity relative to cytosine arabinoside ([6]; leukemia L5178Y in vivo (Table 5)): significantly more active than cytosine arabinoside
- PERCENT SURVIVAL (leukemic cells L5178Y; 20 mg/kg on day 5, 2 hours): 61%
- PERCENT SURVIVAL (leukemic cells L5178Y; 40 mg/kg on day 5, 2 hours): 58%
- PERCENT SURVIVAL (leukemic cells L5178Y; 100 mg/kg on day 5, 2 hours): 43%
- PERCENT INHIBITION AT 10^-4 M ([1]; 10^-4 M, 72 hours, listed as ara-CDP-dipalmitin, Diammonium Salt): less than 50%
- inhibition at 100 µM ([1]; Mus musculus, L5178Y, 72 h, 10^-4 M, 72 hours, read-out: PERCENT INHIBITION AT 10^-4 M): 42%
- viability at 100 µM [5]: 65 ± 1.73%
- viability at 10 µM [5]: 84.3 ± 0.58%
- viability at 1 µM [5]: 90 ± 4.58%
- viability at 0.1 µM [5]: 94 ± 3%

Compound: Nc1ccn([C@@H]2O[C@H](CO)[C@@H](O)[C@@H]2O)c(=O)n1 [Cytosine Arabinoside, cytosine arabinoside, reference compound]
- suppression of CMI-DTH reactions (CMI-DTH reactions; 11 or 50 mg/kg): poorly suppressed
- reduction of peak (day 4) number of IgM AFC/10^6 spleen cells ([2]; 11 mg/kg/day×4): 63%
- reduction of peak (day 5) number of IgG AFC/10^6 spleen cells ([2]; 11 mg/kg/day×4): 55%
- peak (day 5) number of IgG AFC/10^6 spleen cells ([2]; 11 mg/kg/day×4, from 494±123): 224±72 AFC/10^6 spleen cells
- peak (day 4) number of IgM AFC/10^6 spleen cells ([2]; 11 mg/kg/day×4, from 495±130): 180±28 AFC/10^6 spleen cells
- AFC ([2]; 50 mg/kg/day×4): background levels
- inhibition of tumor cell growth ([3]; 200 mg/kg/day×4, determined by palpation): no inhibition of tumor cell growth
- LD10 (LD10 (lethality)): 71 mg/kg/day×4
- change in life spans as compared with control animals ([4]; 13 mg/kg×4 (dose "equivalent" to 50 mg of Ia-11-diglyceride by molecular weight), inferred): no change in life spans
- % CHANGE IN LIFE SPAN ([4]; 50.0 mg/kg daily i.p. ×4 days): +17.6%
- AVERAGE SURVIVAL (DAYS ± S.E.) ([4]; 50.0 mg/kg daily i.p. ×4 days): 20.7 ± 5.4 days
- % CHANGE IN WEIGHT ([4]; 50.0 mg/kg daily i.p. ×4 days, control +0.66): -6.90%
- prolongation of survival times ([4]; 50 mg/kg/day×4): 18%
